The target in one series is PARP1 (Homo sapiens, UniProt P09874). The series is described as follows: PARP enzyme assay (PARP1, chemiluminescent histone ribosylation). Conditions: for % inhibition 10 nM / % inhibition 100 nM: PARP enzyme assay; for % inhibition 10 nM: 10 nM compound, 0.01 µM; for % inhibition 100 nM: 100 nM compound, 0.1 µM.
The target in another series is PARP2 (Homo sapiens, UniProt Q9UGN5). As to the kind of experiment: PARP enzyme assay (PARP2). It is filed as biochemical. The text has this:
Step 2: Ribosylation Reaction

Consider 23 molecules from patent publication US20230234938A1 (RHIZEN PHARMACEUTICALS AG, priority 2020, published 2023).

Like-named read-outs stand apart in the source and are kept apart here.

Usually melting point stands for the temperature, or range, at which the solid turns liquid. Broadly, the IC50 is the concentration that inhibits the measured activity by half. The inhibition is the percentage by which the read-out fell short of the control.

Sequence of PARP1 (P09874 whole entry, species assumed): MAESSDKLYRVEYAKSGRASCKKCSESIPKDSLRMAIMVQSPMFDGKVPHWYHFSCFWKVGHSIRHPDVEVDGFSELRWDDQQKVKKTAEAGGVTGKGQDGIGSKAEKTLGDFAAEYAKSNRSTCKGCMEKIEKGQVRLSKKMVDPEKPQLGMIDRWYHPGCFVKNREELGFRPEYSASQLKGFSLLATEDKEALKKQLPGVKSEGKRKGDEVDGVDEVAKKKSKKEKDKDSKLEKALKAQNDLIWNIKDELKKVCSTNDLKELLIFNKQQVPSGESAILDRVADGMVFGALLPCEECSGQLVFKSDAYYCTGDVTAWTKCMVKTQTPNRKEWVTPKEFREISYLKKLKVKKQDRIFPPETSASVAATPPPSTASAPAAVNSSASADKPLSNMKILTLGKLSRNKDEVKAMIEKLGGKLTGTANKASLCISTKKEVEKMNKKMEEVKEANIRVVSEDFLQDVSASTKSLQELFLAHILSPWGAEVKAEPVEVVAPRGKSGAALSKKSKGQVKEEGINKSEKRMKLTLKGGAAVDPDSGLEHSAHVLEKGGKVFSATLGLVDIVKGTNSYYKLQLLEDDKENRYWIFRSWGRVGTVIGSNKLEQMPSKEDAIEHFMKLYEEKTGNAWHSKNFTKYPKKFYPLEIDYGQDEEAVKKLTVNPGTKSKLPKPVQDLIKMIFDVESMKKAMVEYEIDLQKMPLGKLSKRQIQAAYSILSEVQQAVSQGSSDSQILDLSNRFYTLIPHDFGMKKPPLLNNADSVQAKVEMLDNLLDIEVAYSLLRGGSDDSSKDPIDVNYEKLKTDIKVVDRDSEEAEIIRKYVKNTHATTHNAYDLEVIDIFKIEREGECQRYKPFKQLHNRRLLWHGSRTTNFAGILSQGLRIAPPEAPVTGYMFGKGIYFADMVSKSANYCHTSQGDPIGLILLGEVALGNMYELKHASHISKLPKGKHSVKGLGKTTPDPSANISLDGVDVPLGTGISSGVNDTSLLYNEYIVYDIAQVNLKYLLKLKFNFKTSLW
Sequence of PARP2 (Q9UGN5 whole entry, species assumed): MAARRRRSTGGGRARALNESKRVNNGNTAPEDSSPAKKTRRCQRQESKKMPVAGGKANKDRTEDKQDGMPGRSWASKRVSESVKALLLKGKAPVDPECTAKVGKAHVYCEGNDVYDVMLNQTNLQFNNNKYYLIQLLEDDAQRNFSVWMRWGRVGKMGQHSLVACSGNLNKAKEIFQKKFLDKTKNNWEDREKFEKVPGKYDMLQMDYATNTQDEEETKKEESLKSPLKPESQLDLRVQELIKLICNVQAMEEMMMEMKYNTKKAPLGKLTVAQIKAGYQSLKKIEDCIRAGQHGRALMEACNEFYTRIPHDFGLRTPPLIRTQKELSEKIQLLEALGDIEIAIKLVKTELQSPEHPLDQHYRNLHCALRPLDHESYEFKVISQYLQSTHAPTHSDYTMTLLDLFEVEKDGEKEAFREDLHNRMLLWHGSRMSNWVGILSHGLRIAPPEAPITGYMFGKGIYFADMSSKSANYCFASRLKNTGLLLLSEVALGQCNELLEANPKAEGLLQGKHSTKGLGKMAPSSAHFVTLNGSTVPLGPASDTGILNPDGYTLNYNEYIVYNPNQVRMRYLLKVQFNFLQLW
Description for PARP1: 1) Coat 25 µL of histone solution onto a 384-well plate as described below: • Dilute 5x histone mixture 1:5 with PBS. • Add 25 µL of diluted histone solution to each well and incubate at 4° C. overnight. • Wash the plate three times using 100 µL PBST buffer (1x PBS containing 0.05% Tween20) per well. • Tap plate onto clean paper towel to remove liquid. • Block the wells by adding 100 µL of Blocking buffer 3 to every well. Incubate at room temperature for 1 h 15 minutes. • Wash plate three times with 100 µL PBST buffer as described above. • Tap plate onto clean paper towel to remove liquid.
1) Preparation of 1X PARP Buffer: • Prepare 1x PARP buffer by adding 1 part of 10x PARP buffer to 9 parts distilled water (v/v). To prepare 500 µL of 1X PARP buffer, add 50 µL 10X PARP Assay buffer to 450 µL of H2O and mix well.
2) Preparation of the Ribosylation master mixture: • N wells x (1.25 µL 10x PARP buffer + 1.25 µL 10X PARP Assay mixture + 2.5 µL Activated DNA + 7.5 µL distilled water). Add 12.5 µL to every well.
3) Preparation of the inhibitor solution: • 10 mM stock solution of the inhibitor was prepared in DMSO. From 10 mM stock solution, 250X concentrations of the inhibitor were made in DMSO. • 250X DMSO concentrations of the inhibitor were further diluted to 10X concentrations in 1X kinase buffer. • 2.5 µL (10X concentrations) of kinase buffer containing inhibitor was added to each well. • For the “Positive Control” and “Blank”, add 2.5 µL of kinase buffer containing DMSO (4%) was added. • The final DMSO concentration in the well was 0.4 %.
4) Preparation of the enzyme solution: • Thaw PARP1 enzyme on ice. Upon first thaw, briefly spin tube containing enzyme to recover full content of the tube. Calculate the amount of PARP1 required for the assay and dilute enzyme to 2.0 ng/µL with 1x PARP buffer. • Initiate reaction by adding 10 µL of diluted PARP1 enzyme to the wells designated “Positive Control” and “Test Inhibitor”. • To the wells designated as “Blank”, add 10 µL of 1X PARP buffer. • Centrifuge the plate at 1000 rpm for 30 seconds and incubate at room temperature for 60 min. • Discard the reaction mixture after 1 hour, and wash plate three times with 100 µL PBST buffer and tap plate onto clean paper towel as described above.
1) Preparation of Streptavidin-HRP: • Dilute Streptavidin-HRP 1:50 in Blocking buffer. • Add 25 µL of diluted Streptavidin-HRP to each well. Incubate for 30 min. at room temperature. • Wash three times with 100 µL PBST buffer and tap plate onto clean paper towel as above as described above.
2) Preparation of ECL substrate: • Just before use, mix on ice equal amounts of ELISA ECL Substrate A and ELISA ECL Substrate B and add 50 µL per well. • Immediately read the plate in microtiter-plate in Chemiluminescence setting. The “Blank” value is subtracted from all other values.

Molecule `O=C1N(c2cncc(Cc3n[nH]c(=O)c4ccccc34)c2)c2ccccc2C1(O)C(F)(F)F` (single isomer, unassigned; (+)) [Example 26, (+)-4-((5-(3-Hydroxy-2-oxo-3-(trifluoromethyl)indolin-1-yl)pyridin-3-yl)methyl)phthalazin-1(2H)-one] showed a melting point of 170 to 174 °C. In addition, at PARP1, the “% inhibition 10 nM” value was “A (A represents >75% to 100%)” and the “% inhibition 100 nM” value is recorded as “A (A represents >75% to 100%)”.
With `CC1(O)C(=O)N(c2cc(Cc3n[nH]c(=O)c4ccccc34)ccn2)c2ccccc21` (single isomer, unassigned; (-)) [Example 19, (-)-4-((2-(3-Hydroxy-3-methyl-2-oxoindolin-1-yl)pyridin-4-yl)methyl)phthalazin-1(2H)-one], the melting point fell in the range of 207 to 210 °C. The IC50 at PARP2 was less than 10 nM. In addition, the IC50 against PARP1 was less than 10 nM. The inhibition at 0.01 µM at PARP1 (read-out: % inhibition 10 nM, PARP enzyme assay, 10 nM compound) lay within 75 to 100%. Further, at PARP1 (read-out: % inhibition 100 nM, PARP enzyme assay, 100 nM compound), the inhibition at 0.1 µM fell in the range of 75 to 100%.
Consider `O=C1N(c2cncc(Cc3n[nH]c(=O)c4ccccc34)c2)c2ccccc2C1(O)C(F)(F)F` (single isomer, unassigned; (-)) [Example 27, (-)-4-((5-(3-Hydroxy-2-oxo-3-(trifluoromethyl)indolin-1-yl)pyridin-3-yl)methyl)phthalazin-1(2H)-one], for which the melting point is 210 to 214 °C. On PARP1, the “% inhibition 10 nM” value is reported as “C (C represents >25% to ≤50%)” and the “% inhibition 100 nM” value is “C (C represents >25% to ≤50%)”.
Take `CC1(O)C(=O)N(c2cc(Cc3n[nH]c(=O)c4ccccc34)ccc2F)c2ccccc21` (stereo not drawn) [Example 4, 4-(4-Fluoro-3-(3-hydroxy-3-methyl-2-oxoindolin-1-yl)benzyl)phthalazin-1(2H)-one]: the melting point was in the range of 131 to 134 °C. In addition, the inhibition at 0.01 µM at PARP1 (read-out: % inhibition 10 nM) was 75 to 100%. The inhibition at 0.1 µM at PARP1 (read-out: % inhibition 100 nM) was in the range of 75 to 100%.
For the molecule `CCC1(O)C(=O)N(c2cncc(Cc3n[nH]c(=O)c4ccccc34)c2)c2ccccc21` (stereo not drawn) [Example 5, 4-((5-(3-Ethyl-3-hydroxy-2-oxoindolin-1-yl)pyridin-3-yl)methyl)phthalazin-1(2H)-one], the melting point fell in the range of 117 to 120 °C. Moreover, the inhibition at 0.01 µM at PARP1 (read-out: % inhibition 10 nM) was 75 to 100%. The inhibition at 0.1 µM on PARP1 (read-out: % inhibition 100 nM) was in the range of 75 to 100%.
`CC1(O)C(=O)N(c2cncc(Cc3n[nH]c(=O)c4cc(F)ccc34)c2)c2ccccc21` (stereo not drawn) [Example 6, 7-Fluoro-4-((5-(3-hydroxy-3-methyl-2-oxoindolin-1-yl)pyridin-3-yl)methyl)phthalazin-1(2H)-one] displayed a melting point of 133 to 136 °C. The molecule also displayed an IC50 against PARP2 of less than 10 nM.
`CC1(O)C(=O)N(c2cncc(Cc3n[nH]c(=O)c4ccc(F)cc34)c2)c2ccccc21` (stereo not drawn) [Example 9, 6-Fluoro-4-((5-(3-hydroxy-3-methyl-2-oxoindolin-1-yl)pyridin-3-yl)methyl)phthalazin-1(2H)-one]: the melting point was 132 to 135 °C. For the same molecule, the inhibition at 0.01 µM at PARP1 (read-out: % inhibition 10 nM) lay in the range of 75 to 100%. Also, the inhibition at 0.1 µM on PARP1 (read-out: % inhibition 100 nM) fell in the range of 75 to 100%.
In the case of `CC1(O)C(=O)N(c2cncc(Cc3n[nH]c(=O)c4cc(F)ccc34)c2)c2ccc(F)cc21` (stereo not drawn) [Example 10, 7-Fluoro-4-((5-(5-fluoro-3-hydroxy-3-methyl-2-oxoindolin-1-yl)pyridin-3-yl)methyl)phthalazin-1(2H)-one], the melting point fell in the range of 157 to 160 °C. On PARP1, the IC50 was less than 10 nM. On PARP1 (read-out: % inhibition 10 nM), the inhibition at 0.01 µM fell in the range of 75 to 100%. On PARP1 (read-out: % inhibition 100 nM), the inhibition at 0.1 µM lay in the range of 75 to 100%.
In turn, `CC1(O)C(=O)N(c2cncc(Cc3n[nH]c(=O)c4ccccc34)c2)c2ccc(F)cc21` (stereo not drawn) [Example 13, 4-((5-(5-Fluoro-3-hydroxy-3-methyl-2-oxoindolin-1-yl)pyridin-3-yl)methyl)phthalazin-1(2H)-one] showed a melting point of 116 to 120 °C. This molecule also yielded an IC50 against PARP2 of less than 10 nM. Moreover, the IC50 against PARP1 was less than 10 nM. The inhibition at 0.01 µM at PARP1 (read-out: % inhibition 10 nM) was 75 to 100%. The inhibition at 0.1 µM at PARP1 (read-out: % inhibition 100 nM) lay in the range of 75 to 100%.
In the case of `CC1(O)C(=O)N(c2cncc(Cc3n[nH]c(=O)c4ccccc34)c2)c2cc(F)ccc21` (stereo not drawn) [Example 16], the melting point lay in the range of 125 to 128 °C. In addition, on PARP1 (read-out: % inhibition 10 nM), the inhibition at 0.01 µM is 75 to 100%. The inhibition at 0.1 µM on PARP1 (read-out: % inhibition 100 nM) lay in the range of 75 to 100%.
For the molecule `CC1(O)C(=O)N(c2cncc(Cc3n[nH]c(=O)c4cc(F)ccc34)c2)c2cc(F)ccc21` (stereo not drawn) [Example 17, 7-Fluoro-4-((5-(6-fluoro-3-hydroxy-3-methyl-2-oxoindolin-1-yl)pyridin-3-yl)methyl)phthalazin-1(2H)-one], the melting point is 219 to 221 °C. Also, on PARP1 (read-out: % inhibition 10 nM), the inhibition at 0.01 µM is 75 to 100%. Also, the inhibition at 0.1 µM on PARP1 (read-out: % inhibition 100 nM) was in the range of 75 to 100%.
The molecule `CC1(O)C(=O)N(c2cc(Cc3n[nH]c(=O)c4ccccc34)ccn2)c2ccccc21` (stereo not drawn) [Example 18, 4-((2-(3-hydroxy-3-methyl-2-oxoindolin-1-yl)pyridin-4-yl)methyl)phthalazin-1(2H)-one] displayed a melting point of 203 to 205 °C. At PARP2, this molecule registered a concentration for half-maximal inhibition (IC50) of less than 10 nM. This molecule had a half-inhibitory concentration (IC50) against PARP1 of less than 10 nM. Further, the inhibition at 0.01 µM at PARP1 (read-out: % inhibition 10 nM) lay within 75 to 100%. Further, the inhibition at 0.1 µM on PARP1 (read-out: % inhibition 100 nM) lay within 75 to 100%.
As for `CC1(O)C(=O)N(c2cccc(Cc3n[nH]c(=O)c4ccccc34)c2)c2ccccc21` (stereo not drawn) [Example 28, 4-(3-(3-Hydroxy-3-methyl-2-oxoindolin-1-yl)benzyl)phthalazin-1(2H)-one], the melting point fell in the range of 240 to 243 °C. For the same molecule, the inhibition at 0.01 µM at PARP1 (read-out: % inhibition 10 nM) is 75 to 100%. The inhibition at 0.1 µM on PARP1 (read-out: % inhibition 100 nM) lay in the range of 75 to 100%.
With `CC1(O)C(=O)N(c2cc(Cc3n[nH]c(=O)c4cc(F)ccc34)ccc2F)c2ccccc21` (stereo not drawn) [Example 29, 7-Fluoro-4-(4-fluoro-3-(3-hydroxy-3-methyl-2-oxoindolin-1-yl)benzyl)phthalazin-1(2H)-one], the melting point was in the range of 207 to 210 °C. Moreover, the inhibition at 0.01 µM on PARP1 (read-out: % inhibition 10 nM) fell in the range of 75 to 100%. For the same molecule, the inhibition at 0.1 µM at PARP1 (read-out: % inhibition 100 nM) lay in the range of 75 to 100%.
In the case of `COC1(C)C(=O)N(c2cncc(Cc3n[nH]c(=O)c4ccccc34)c2)c2ccccc21` (stereo not drawn) [Example 30, 4-((5-(3-methoxy-3-methyl-2-oxoindolin-1-yl)pyridin-3-yl)methyl)phthalazin-1(2H)-one], the melting point was 207 to 210 °C. At PARP1 (read-out: % inhibition 10 nM), the inhibition at 0.01 µM fell in the range of 25 to 50%. In addition, the inhibition at 0.1 µM on PARP1 (read-out: % inhibition 100 nM) was in the range of 75 to 100%.
For `CC1(O)C(=O)N(c2cccc(Cc3n[nH]c(=O)c4ccccc34)c2)c2cnccc21` (stereo not drawn) [Example 31, 4-(3-(3-Hydroxy-3-methyl-2-oxo-2,3-dihydro-1H-pyrrolo[2,3-c]pyridin-1-yl)benzyl)phthalazin-1(2H)-one], in that order: 133 to 136 °C, 25 to 50% and 75 to 100%.
The matching figures for `CC(=O)OC1(C)C(=O)N(c2cncc(Cc3n[nH]c(=O)c4ccccc34)c2)c2ccccc21` (stereo not drawn) [Example 32, 3-Methyl-2-oxo-1-(5-((4-oxo-3,4-dihydrophthalazin-1-yl)methyl)pyridin-3-yl)indolin-3-yl acetate]: 237 to 239 °C, 75 to 100% and 75 to 100%.
For `O=C1Cc2ccccc2N1c1cc(Cc2n[nH]c(=O)c3ccccc23)ccc1F` [Example 33, 4-(4-Fluoro-3-(2-oxoindolin-1-yl)benzyl)phthalazin-1(2H)-one], in that order: 232 to 235 °C, 75 to 100% and 75 to 100%.
As to `CC1(C)C(=O)N(c2cc(Cc3n[nH]c(=O)c4ccccc34)ccc2F)c2ccccc21` [Example 34, 4-(3-(3,3-Dimethyl-2-oxoindolin-1-yl)-4-fluorobenzyl)phthalazine-1(2H)-one], the melting point fell in the range of 129 to 132 °C. For the same molecule, the inhibition at 0.01 µM on PARP1 (read-out: % inhibition 10 nM) lay in the range of 75 to 100%. For the same molecule, the inhibition at 0.1 µM on PARP1 (read-out: % inhibition 100 nM) lay in the range of 75 to 100%.
Take `CC1(C)C(=O)N(c2cncc(Cc3n[nH]c(=O)c4ccccc34)c2)c2ccccc21` [Example 35, 4-((5-(3,3-Dimethyl-2-oxoindolin-1-yl)pyridin-3-yl)methyl)phthalazin-1(2H)-one]: the melting point fell in the range of 221 to 224 °C. For the same molecule, at PARP1 (read-out: % inhibition 10 nM), the inhibition at 0.01 µM fell in the range of 75 to 100%. Also, on PARP1 (read-out: % inhibition 100 nM), the inhibition at 0.1 µM was 75 to 100%.
As for `CC1(C)C(=O)N(c2cncc(Cc3n[nH]c(=O)c4ccccc34)c2)c2cccnc21` [Example 36, 4-((5-(3,3-Dimethyl-2-oxo-2,3-dihydro-1H-pyrrolo[3,2-b]pyridin-1-yl)pyridin-3-yl)methyl)phthalazin-1(2H)-one], the melting point was in the range of 242 to 245 °C. The inhibition at 0.01 µM at PARP1 (read-out: % inhibition 10 nM) lay in the range of 25 to 50%. For the same molecule, the inhibition at 0.1 µM on PARP1 (read-out: % inhibition 100 nM) lay within 75 to 100%.
For `CC1(C)C(=O)N(c2cc(Cc3n[nH]c(=O)c4ccccc34)ccc2F)c2cccnc21` [Example 37, 4-(3-(3,3-Dimethyl-2-oxo-2,3-dihydro-1H-pyrrolo[3,2-b]pyridin-1-yl)-4-fluorobenzyl)phthalazin-1(2H)-one], in that order: 114 to 117 °C, 25 to 50% and 75 to 100%.
Consider `O=C1N(c2cncc(Cc3n[nH]c(=O)c4ccccc34)c2)c2ccccc2C12CC2` [Example 38, 1′-(5-((4-Oxo-3,4-dihydrophthalazin-1-yl)methyl)pyridin-3-yl)spiro[cyclopropane-1,3′-indolin]-2′-one], for which the melting point fell in the range of 219 to 222 °C. In addition, the inhibition at 0.01 µM on PARP1 (read-out: % inhibition 10 nM) was in the range of 75 to 100%. Further, the inhibition at 0.1 µM at PARP1 (read-out: % inhibition 100 nM) lay in the range of 75 to 100%.
